In brackets after ≈: the same amount, converted by molar mass.
Tests used:
Type in all cases: cell-based
E. faecalis = assay: MIC values, E. faecalis (Tables 1-4)
E. coli = assay: MIC values, E. coli (Tables 1-4)
H. flu = test system: H. flu
S. pneumo. = assay: MIC values, S. pneumo. (Tables 1-4)
S. aureus = assay: MIC values, S. aureus (Tables 1-4)

| Compound | MIC E. faecalis (E. faecalis) [µg/mL] | MIC E. coli (E. coli) [µg/mL] | MIC H. flu (H. flu) [µg/mL] | MIC S. pneumo. (S. pneumo.) [ng/mL] | MIC S. aureus (S. aureus) [µg/mL] | MIC F. faecalis (E. faecalis; Table 2) [µg/mL] |
| --- | --- | --- | --- | --- | --- | --- |
| CO[C@H]1/C=C/O[C@@]2(C)Oc3c(C)c(O)c4c(=O)c(c5oc6cc(N7CCCC7)c(F)cc6nc-5c4c3C2=O)NC(=O)/C(C)=C\C=C\[C@H](C)[C@H](O)[C@@H](C)[C@@H](O)[C@@H](C)[C@H](O)[C@@H]1C [Compound 123] | 1 (≈ 1200 nM) | 8 (≈ 9640 nM) | 0.12 (≈ 145 nM) | 60 (≈ 72.3 nM) | 0.03 (≈ 36.1 nM) |  |
| CCOc1c(N2CCN(CC)CC2)ccc2nc3c4c5c6c(C)c(O)c4c(=O)c(c-3oc12)NC(=O)/C(C)=C\C=C\[C@H](C)[C@H](O)[C@@H](C)[C@@H](O)[C@@H](C)[C@H](O)[C@H](C)[C@@H](OC)/C=C/O[C@@](C)(O6)C5=O [Compound 94] | 0.5 (≈ 556 nM) | 8 (≈ 8900 nM) | 0.25 (≈ 278 nM) | 0.5 (≈ 0.556 nM) | 0.008 (≈ 8.9 nM) |  |
| COC1C=COC2(C)Oc3c(C)c(O)c4c(=O)c(c5sc6cc(N7CCN8CCCC8C7)ccc6nc-5c4c3C2=O)NC(=O)C(C)=CC=CC(C)C(O)C(C)C(O)C(C)C(O)C1C (stereo not drawn) [Compound 77] | 0.25 (≈ 283 nM) | 2 (≈ 2260 nM) | 0.12 (≈ 136 nM) | 0.25 (≈ 0.283 nM) | 0.002 (≈ 2.26 nM) |  |
| CO[C@H]1/C=C/O[C@@]2(C)Oc3c(C)c(O)c4c(=O)c(c5oc6cc(N7C[C@@H]8CCCN(C)[C@@H]8C7)cc(O)c6nc-5c4c3C2=O)NC(=O)/C(C)=C\C=C\[C@H](C)[C@H](O)[C@@H](C)[C@@H](O)[C@@H](C)[C@H](OC(C)=O)[C@@H]1C [Compound 58] | 1 (≈ 1060 nM) | >8 | 0.25 (≈ 266 nM) | 4 (≈ 4.26 nM) | 0.03 (≈ 31.9 nM) |  |
| CO[C@H]1/C=C/O[C@@]2(C)Oc3c(C)c(O)c4c(=O)c(c5oc6c(C)c(N7CCCC7)cc(C)c6nc-5c4c3C2=O)NC(=O)/C(C)=C\C=C\[C@H](C)[C@H](O)[C@@H](C)[C@@H](O)[C@@H](C)[C@H](O)[C@@H]1C [Compound 119] | 2 (≈ 2380 nM) | >8 | 2 (≈ 2380 nM) | 500 (≈ 595 nM) | 0.5 (≈ 595 nM) |  |
| CO[C@H]1/C=C/O[C@@]2(C)Oc3c(C)c(O)c4c(=O)c(c5sc6cc(N7CCOCC7)ccc6nc-5c4c3C2=O)NC(=O)/C(C)=C\C=C\[C@H](C)[C@H](O)[C@@H](C)[C@@H](O)[C@@H](C)[C@H](O)[C@@H]1C [Compound 132] | 0.5 (≈ 592 nM) | 4 (≈ 4740 nM) | 0.06 (≈ 71.1 nM) | 1 (≈ 1.18 nM) | 0.015 (≈ 17.8 nM) |  |
| CO[C@H]1/C=C/O[C@@]2(C)Oc3c(C)c(O)c4c(=O)c(c5oc6cc(N7CCC(N(C)C)CC7)cc(O)c6nc-5c4c3C2=O)NC(=O)/C(C)=C\C=C\[C@H](C)[C@H](O)[C@@H](C)[C@@H](O)[C@@H](C)[C@H](O)[C@@H]1C [Compound 18] | 0.12 (≈ 136 nM) | 4 (≈ 4520 nM) | 0.5 (≈ 565 nM) | 0.12 (≈ 0.136 nM) | 0.004 (≈ 4.52 nM) |  |
| CO[C@H]1/C=C/O[C@@]2(C)Oc3c(C)c(O)c4c(=O)c(c5oc6cc(N7CCC(N)CC7)cc(O)c6nc-5c4c3C2=O)NC(=O)/C(C)=C\C=C\[C@H](C)[C@H](O)[C@@H](C)[C@@H](O)[C@@H](C)[C@H](OC(C)=O)[C@@H]1C [Compound 33] | 1 (≈ 1110 nM) | >8 | 1 (≈ 1110 nM) | 0.06 (≈ 0.0667 nM) | 0.008 (≈ 8.9 nM) |  |
| CO[C@H]1/C=C/O[C@@]2(C)Oc3c(C)c(O)c4c(=O)c(c5oc6cc(N7CCN(CC8CC8)CC7)cc(O)c6nc-5c4c3C2=O)NC(=O)/C(C)=C\C=C\[C@H](C)[C@H](O)[C@@H](C)[C@@H](O)[C@@H](C)[C@H](O)[C@@H]1C [Compound 99] | 0.06 (≈ 66.9 nM) | 2 (≈ 2230 nM) | 0.25 (≈ 279 nM) | 0.5 (≈ 0.557 nM) | 0.008 (≈ 8.92 nM) |  |
| CO[C@H]1/C=C/O[C@@]2(C)Oc3c(C)c(O)c4c(=O)c(c5oc6cc(N7CCC(C)(NC(C)=O)CC7)cc(O)c6nc-5c4c3C2=O)NC(=O)/C(C)=C\C=C\[C@H](C)[C@H](O)[C@@H](C)[C@@H](O)[C@@H](C)[C@H](OC(C)=O)[C@@H]1C [Compound 72] | 2 (≈ 2090 nM) | >8 | 0.5 (≈ 524 nM) | 0.25 (≈ 0.262 nM) | 0.008 (≈ 8.38 nM) |  |
| CCc1cc2nc3c4c5c6c(C)c(O)c4c(=O)c(c-3oc2cc1N1CCCCC1)NC(=O)/C(C)=C\C=C\[C@H](C)[C@H](O)[C@@H](C)[C@@H](O)[C@@H](C)[C@H](O)[C@H](C)[C@@H](OC)/C=C/O[C@@](C)(O6)C5=O [Compound 111] | 4 (≈ 4680 nM) | 1 (≈ 1170 nM) | 2 (≈ 2340 nM) | 120 (≈ 141 nM) | 1 (≈ 1170 nM) |  |
| CO[C@H]1/C=C/O[C@@]2(C)Oc3c(C)c(O)c4c(=O)c(c5oc6c(F)c(N7CCN(CC(C)C)CC7)ccc6nc-5c4c3C2=O)NC(=O)/C(C)=C\C=C\[C@H](C)[C@H](O)[C@@H](C)[C@@H](O)[C@@H](C)[C@H](O)[C@@H]1C [Compound 109] | 0.5 (≈ 555 nM) | 8 (≈ 8880 nM) | 0.5 (≈ 555 nM) | 8 (≈ 8.88 nM) | 0.03 (≈ 33.3 nM) |  |
| CO[C@H]1/C=C/O[C@@]2(C)Oc3c(C)c(O)c4c(=O)c(c5oc6cc(N7CCN(C(=O)C8CC8)CC7)cc(O)c6nc-5c4c3C2=O)NC(=O)/C(C)=C\C=C\[C@H](C)[C@H](O)[C@@H](C)[C@@H](O)[C@@H](C)[C@H](O)[C@@H]1C [Compound 110] | 0.5 (≈ 549 nM) | 8 (≈ 8780 nM) | 0.25 (≈ 274 nM) | 4 (≈ 4.39 nM) | 0.015 (≈ 16.5 nM) |  |
| COC1C=COC2(C)Oc3c(C)c(O)c4c(=O)c(c5oc6cc(N7CC8C(C7)C8NC(=O)OCC[Si](C)(C)C)cc(O)c6nc-5c4c3C2=O)NC(=O)C(C)=CC=CC(C)C(O)C(C)C(O)C(C)C(OC(C)=O)C1C (stereo not drawn) [Compound 2] | >8 | >8 | >8 | 30 (≈ 28.8 nM) | 1 (≈ 960 nM) |  |
| CO[C@H]1/C=C/O[C@@]2(C)Oc3c(C)c(O)c4c(=O)c(c5oc6cc(N7CCC(N(C)C)CC7)cc(O)c6nc-5c4c3C2=O)NC(=O)/C(C)=C\C=C\[C@H](C)[C@H](O)[C@@H](C)[C@@H](O)[C@@H](C)[C@H](OC(C)=O)[C@@H]1C [Compound 17] | 1 (≈ 1080 nM) | 8 (≈ 8630 nM) | 1 (≈ 1080 nM) | 0.12 (≈ 0.129 nM) | 0.008 (≈ 8.63 nM) |  |
| CO[C@H]1/C=C/O[C@@]2(C)Oc3c(C)c(O)c4c(=O)c(c5sc6cc(N7CCN(C)CC7)ccc6nc-5c4c3C2=O)NC(=O)/C(C)=C\C=C\[C@H](C)[C@H](O)[C@@H](C)[C@@H](O)[C@@H](C)[C@H](O)[C@@H]1C [Compound 104] | 0.12 (≈ 140 nM) | 2 (≈ 2330 nM) | 0.12 (≈ 140 nM) | 0.12 (≈ 0.14 nM) | 0.002 (≈ 2.33 nM) |  |
| CO[C@H]1/C=C/O[C@@]2(C)Oc3c(C)c(O)c4c(=O)c(c5oc6cc(N7CCN(c8ccccc8)CC7)cc(O)c6nc-5c4c3C2=O)NC(=O)/C(C)=C\C=C\[C@H](C)[C@H](O)[C@@H](C)[C@@H](O)[C@@H](C)[C@H](O)[C@@H]1C [Compound 102] | 0.06 (≈ 65.3 nM) | 4 (≈ 4350 nM) | 0.25 (≈ 272 nM) |  | 0.004 (≈ 4.35 nM) |  |
| CO[C@H]1/C=C/O[C@@]2(C)Oc3c(C)c(O)c4c(=O)c(c5oc6c(F)cc(F)cc6nc-5c4c3C2=O)NC(=O)/C(C)=C\C=C\[C@H](C)[C@H](O)[C@@H](C)[C@@H](O)[C@@H](C)[C@H](O)[C@@H]1C [Compound 137] | 1 (≈ 1280 nM) | >8 | 2 (≈ 2570 nM) |  | 0.12 (≈ 154 nM) |  |
| CO[C@H]1/C=C/O[C@@]2(C)Oc3c(C)c(O)c4c(=O)c(c5oc6c7c(cc(O)c6nc-5c4c3C2=O)N(Cc2ccccc2)CCN7Cc2ccccc2)NC(=O)/C(C)=C\C=C\[C@H](C)[C@H](O)[C@@H](C)[C@@H](O)[C@@H](C)[C@H](OC(C)=O)[C@@H]1C [Compound 85] |  | >8 | >8 |  | 2 (≈ 1930 nM) | 8 (≈ 7710 nM) |
| COC1C=COC2(C)Oc3c(C)c(O)c4c(=O)c(c5oc6cc(N7CC(C)CC(C)C7)cc(O)c6nc-5c4c3C2=O)NC(=O)C(C)=CC=CC(C)C(O)C(C)C(O)C(C)C(O)C1C (mixture of isomers) [Compound 116] | 1 |  | 0.12 | 2 | 0.008 |  |

— patent US20070142392A1, “Uses of rifamycins” (ActivBiotics, Inc., priority 2005, published 2007)
